Reference: PubChem BioAssay AID623907 (NMMLSC, 2012)

Test system: mouse and human plasma stability, LC/MS/MS, 180 min
Experiment: plasma degradation of screening hits, two species – biochemical, mouse and human plasma, ADME assay for GPR30 and estrogen receptor ligands, late-stage follow-up (AID 623907)
Conditions: at 1 µM, stronger effect = higher value

percent remaining: 94.5%
percent remaining (measured here: human plasma stability, 180 min): 100%
Compound: COc1cc([N+](=O)[O-])cc2c1NC(C1CC=CCC1)C1CC=CC21 (configuration not stated)
